Reference: PMC2248166, “Quantitative peptide binding motifs for 19 human and mouse MHC class I molecules derived using positional scanning combinatorial peptide libraries” (Immunome Research, 2008)
Where a SMILES comes first, the peptide text is derived from it.

target: HLA B*1501 (Homo sapiens, UniProt P01889, A329T/A93T/A95T/C349S/D201E/D98Y/E187L/E204Q/E69M/E70A/K202T/N87E/Q94N/R155S/R180W/S121R/S35A/S48A/V306I/V36M/Y140S/Y91S); test: biochemical; assay type: binding

| SMILES | IC50 |
| --- | --- |
| CC[C@H](C)[C@H](NC(=O)[C@H](CCSC)NC(=O)[C@@H](N)CO)C(=O)N[C@@H](CC(N)=O)C(=O)N[C@@H](Cc1ccc(O)cc1)C(=O)N[C@@H](Cc1ccc(O)cc1)C(=O)N[C@@H](CC(N)=O)C(=O)N[C@@H](CCC(=O)O)C(=O)N[C@@H](CCSC)C(=O)O [3102.0985] (H-SMINYYNEM-OH) | 2.3 nM |
| CC[C@H](C)[C@H](NC(=O)[C@@H](N)Cc1ccccc1)C(=O)N[C@@H](CC(N)=O)C(=O)N[C@@H](CO)C(=O)N[C@H](C(=O)N[C@@H](CS)C(=O)N[C@@H](Cc1ccc(O)cc1)C(=O)N[C@H](C(=O)N[C@@H](Cc1ccccc1)C(=O)O)C(C)C)[C@@H](C)O [3102.0986] (H-FINSTCYVF-OH) | 4.3 nM |
| C[C@@H](O)[C@H](NC(=O)[C@H](Cc1ccccc1)NC(=O)[C@H](CO)NC(=O)[C@@H](N)CCCNC(=N)N)C(=O)N[C@@H](Cc1ccccc1)C(=O)N[C@@H](CCCCN)C(=O)N[C@@H](CCC(=O)O)C(=O)NCC(=O)N[C@@H](Cc1ccccc1)C(=O)O [3102.0988] (H-RSFTFKEGF-OH) | 35 nM |
| CC[C@H](C)[C@H](NC(=O)[C@H](CO)NC(=O)[C@@H](N)CCSC)C(=O)N[C@@H](CC(=O)O)C(=O)N[C@@H](Cc1c[nH]cn1)C(=O)N[C@@H](CS)C(=O)N[C@@H](CO)C(=O)N[C@@H](CO)C(=O)N[C@@H](Cc1ccccc1)C(=O)O [3102.0989] (H-MSIDHCSSF-OH) | 0.95 nM |
| CC[C@H](C)[C@H](N)C(=O)N[C@H](C(=O)N[C@@H](Cc1ccc(O)cc1)C(=O)N[C@@H](CS)C(=O)N[C@@H](CC(C)C)C(=O)N[C@H](C(=O)N[C@H](C(=O)N[C@@H](Cc1c[nH]cn1)C(=O)N[C@@H](CCSC)C(=O)O)[C@@H](C)O)C(C)C)[C@@H](C)O [3102.0993] (H-ITYCLVTHM-OH) | 25 nM |
| CC(C)C[C@H](NC(=O)[C@H](Cc1ccc(O)cc1)NC(=O)[C@H](C)NC(=O)[C@@H](N)CCCCN)C(=O)N[C@@H](Cc1ccc(O)cc1)C(=O)N[C@H](C(=O)N[C@@H](CCC(=O)O)C(=O)N[C@@H](Cc1ccc(O)cc1)C(=O)N[C@@H](Cc1ccccc1)C(=O)O)[C@@H](C)O [3102.0995] (H-KAYLYTEYF-OH) | 7.6 nM |
| CC[C@H](C)[C@H](NC(=O)[C@@H](N)Cc1c[nH]cn1)C(=O)N[C@@H](CC(N)=O)C(=O)N[C@@H](CCCCN)C(=O)N[C@@H](CC(C)C)C(=O)N[C@@H](Cc1ccccc1)C(=O)N[C@@H](CO)C(=O)N[C@H](C(=O)N[C@@H](Cc1ccccc1)C(=O)O)C(C)C [3102.0997] (H-HINKLFSVF-OH) | 0.92 nM |
| CC[C@H](C)[C@H](NC(=O)[C@H](CO)NC(=O)[C@H](C)N)C(=O)N[C@H](C(=O)N[C@@H](C)C(=O)N[C@@H](Cc1ccccc1)C(=O)N[C@@H](CCCCN)C(=O)N[C@@H](CO)C(=O)N[C@@H](CCSC)C(=O)O)[C@@H](C)O [3102.0999] (H-ASITAFKSM-OH) | 25 nM |
| CC[C@H](C)[C@H](NC(=O)[C@H](C)NC(=O)[C@@H](N)CC(C)C)C(=O)N1CCC[C@H]1C(=O)N[C@@H](C)C(=O)N[C@H](C(=O)N[C@@H](CCC(=O)O)C(=O)N[C@@H](Cc1ccccc1)C(=O)N[C@@H](Cc1ccccc1)C(=O)O)[C@@H](C)O [3102.1001] (H-LAIPATEFF-OH) | 4.2 nM |
| CC[C@H](C)[C@H](NC(=O)[C@H](CO)NC(=O)[C@@H](N)CC(C)C)C(=O)N[C@@H](Cc1ccccc1)C(=O)N[C@@H](Cc1ccccc1)C(=O)N[C@H](C(=O)N[C@H](C(=O)N[C@H](C(=O)N[C@@H](C)C(=O)O)C(C)C)C(C)C)[C@@H](C)CC [3102.1004] (H-LSIFFIVVA-OH) | 82 nM |
| CC[C@H](C)[C@H](NC(=O)[C@H](CC(N)=O)NC(=O)[C@H](C)N)C(=O)N[C@H](C(=O)N[C@@H](Cc1c[nH]cn1)C(=O)N[C@@H](Cc1ccccc1)C(=O)N[C@@H](CS)C(=O)N[C@@H](CO)C(=O)N[C@@H](Cc1ccccc1)C(=O)O)[C@@H](C)O [3102.1005] (H-ANITHFCSF-OH) | 15 nM |
| CC[C@H](C)[C@H](NC(=O)[C@H](CC(N)=O)NC(=O)[C@H](C)NC(=O)[C@H](CCCNC(=N)N)NC(=O)CNC(=O)[C@@H](N)CC(C)C)C(=O)N[C@H](C(=O)N[C@@H](Cc1c[nH]cn1)C(=O)N[C@@H](Cc1ccccc1)C(=O)O)[C@@H](C)O [3102.1006] (H-LGRANITHF-OH) | 6.7 nM |
| CC(C)C[C@H](NC(=O)[C@H](CC(C)C)NC(=O)[C@@H](N)Cc1ccccc1)C(=O)N[C@@H](CO)C(=O)N[C@@H](CC(C)C)C(=O)N[C@H](C(=O)N[C@@H](CCC(=O)O)C(=O)N[C@@H](Cc1ccccc1)C(=O)N[C@@H](Cc1ccccc1)C(=O)O)C(C)C [3102.1008] (H-FLLSLVEFF-OH) | 0.82 nM |
| CSCC[C@H](NC(=O)[C@H](CO)NC(=O)[C@H](CS)NC(=O)[C@H](CO)NC(=O)[C@@H](NC(=O)[C@@H](N)CCCCN)C(C)C)C(=O)N[C@@H](CC(C)C)C(=O)N[C@@H](CCC(=O)O)C(=O)N[C@@H](Cc1ccccc1)C(=O)O [3102.1010] (H-KVSCSMLEF-OH) | 0.84 nM |
| CC[C@H](C)[C@H](NC(=O)[C@@H](NC(=O)CN)[C@@H](C)O)C(=O)N[C@@H](CCSC)C(=O)N[C@H](C(=O)N[C@@H](CO)C(=O)N[C@@H](CCC(=O)O)C(=O)N[C@@H](Cc1c[nH]cn1)C(=O)N[C@@H](Cc1ccccc1)C(=O)O)C(C)C [3102.1012] (H-GTIMVSEHF-OH) | 57 nM |
| CC[C@H](C)[C@H](NC(=O)[C@H](CCSC)NC(=O)[C@H](C)N)C(=O)N[C@@H](CCC(=O)O)C(=O)N[C@@H](CC(C)C)C(=O)N[C@@H](CS)C(=O)NCC(=O)N[C@@H](C)C(=O)N[C@@H](Cc1ccccc1)C(=O)O [3102.1013] (H-AMIELCGAF-OH) | 0.34 nM |
| CC(C)C[C@H](NC(=O)[C@H](Cc1ccccc1)NC(=O)[C@H](C)NC(=O)CNC(=O)[C@H](CS)NC(=O)[C@H](CC(C)C)NC(=O)[C@@H](N)CCC(=O)O)C(=O)N[C@@H](Cc1ccccc1)C(=O)N[C@@H](Cc1ccc(O)cc1)C(=O)O [3102.1015] (H-ELCGAFLFY-OH) | 7.5 nM |
| CC[C@H](C)[C@H](NC(=O)[C@H](CC(C)C)NC(=O)[C@@H](N)CO)C(=O)N[C@@H](Cc1ccc(O)cc1)C(=O)N[C@@H](CC(C)C)C(=O)N[C@@H](CS)C(=O)N[C@H](C(=O)N[C@@H](Cc1ccccc1)C(=O)N[C@@H](CCSC)C(=O)O)[C@@H](C)O [3102.1017] (H-SLIYLCTFM-OH) | 4.5 nM |
| CC[C@H](C)[C@H](N)C(=O)N[C@H](C(=O)N[C@@H](CO)C(=O)N[C@@H](CO)C(=O)N[C@@H](CO)C(=O)N[C@H](C(=O)N[C@@H](CC(C)C)C(=O)N[C@@H](Cc1ccc(O)cc1)C(=O)N[C@@H](Cc1ccccc1)C(=O)O)[C@@H](C)O)[C@@H](C)CC [3102.1018] (H-IISSSTLYF-OH) | 1.1 nM |
| CC(C)C[C@H](NC(=O)[C@H](CCCCN)NC(=O)[C@H](CCCCN)NC(=O)[C@H](CC(C)C)NC(=O)[C@@H](N)CC(C)C)C(=O)N[C@@H](CC(N)=O)C(=O)N[C@@H](CO)C(=O)N[C@@H](Cc1ccccc1)C(=O)NCC(=O)O [3102.1020] (H-LLKKLNSFG-OH) | 45 nM |
| CC(C)C[C@H](NC(=O)[C@@H](N)CC(C)C)C(=O)N[C@@H](Cc1c[nH]cn1)C(=O)N[C@@H](CS)C(=O)N[C@H](C(=O)N[C@H](C(=O)N[C@@H](CCC(=O)O)C(=O)N[C@@H](CO)C(=O)N[C@@H](Cc1ccc(O)cc1)C(=O)O)[C@@H](C)O)C(C)C [3102.1022] (H-LLHCVTESY-OH) | 1 nM |
| CC[C@H](C)[C@H](NC(=O)[C@H](CCC(=O)O)NC(=O)[C@H](Cc1ccccc1)NC(=O)[C@H](Cc1ccccc1)NC(=O)[C@@H](NC(=O)[C@@H](N)Cc1ccc(O)cc1)C(C)C)C(=O)N[C@H](C(=O)N[C@@H](Cc1c[nH]cn1)C(=O)N[C@@H](Cc1ccccc1)C(=O)O)[C@@H](C)CC [3102.1024] (H-YVFFEIIHF-OH) | 0.69 nM |
| CSCC[C@H](NC(=O)[C@H](Cc1c[nH]cn1)NC(=O)[C@H](CCCCN)NC(=O)[C@H](CC(N)=O)NC(=O)[C@@H](NC(=O)[C@H](CC(N)=O)NC(=O)[C@H](CO)NC(=O)[C@H](CCC(N)=O)NC(=O)[C@@H](N)CCCCN)[C@@H](C)O)C(=O)O [3102.1026] (H-KQSNTNKHM-OH) | 28 nM |
| CSCC[C@H](NC(=O)[C@H](Cc1c[nH]cn1)NC(=O)[C@H](CCCCN)NC(=O)[C@H](CC(N)=O)NC(=O)[C@@H](NC(=O)[C@@H](N)CC(N)=O)[C@@H](C)O)C(=O)N[C@@H](CC(C)C)C(=O)N[C@@H](CCC(=O)O)C(=O)N[C@@H](Cc1ccccc1)C(=O)O [3102.1027] (H-NTNKHMLEF-OH) | 12 nM |
| CC(C)C[C@H](NC(=O)[C@H](C)NC(=O)[C@@H](NC(=O)[C@H](Cc1ccccc1)NC(=O)[C@H](CS)NC(=O)[C@H](Cc1ccccc1)NC(=O)[C@H](Cc1ccc(O)cc1)NC(=O)[C@@H](NC(=O)[C@@H](N)CC(C)C)[C@@H](C)O)C(C)C)C(=O)O [3102.1028] (H-LTYFCFVAL-OH) | 29 nM |
| CC[C@H](C)[C@H](NC(=O)[C@H](CO)NC(=O)[C@H](CC(C)C)NC(=O)[C@H](CC(C)C)NC(=O)[C@@H](N)CC(C)C)C(=O)N[C@@H](CC(N)=O)C(=O)N[C@@H](CO)C(=O)N[C@@H](CO)C(=O)N[C@@H](Cc1ccccc1)C(=O)O [3102.1035] (H-LLLSINSSF-OH) | 0.88 nM |
| CC[C@H](C)[C@H](NC(=O)[C@@H](N)CCSC)C(=O)N[C@@H](CCCCN)C(=O)N[C@@H](CC(N)=O)C(=O)N[C@@H](CC(C)C)C(=O)N[C@H](C(=O)N[C@@H](CCC(N)=O)C(=O)N[C@@H](CC(C)C)C(=O)N[C@@H](Cc1ccccc1)C(=O)O)[C@@H](C)O [3102.1037] (H-MIKNLTQLF-OH) | 5.7 nM |
| CSCC[C@H](NC(=O)[C@H](C)NC(=O)[C@@H]1CCCN1C(=O)[C@@H](NC(=O)[C@H](Cc1ccc(O)cc1)NC(=O)[C@H](C)NC(=O)[C@H](CCCCN)NC(=O)[C@H](CCC(N)=O)NC(=O)[C@@H](N)CCC(=O)O)C(C)C)C(=O)O [3102.1038] (H-EQKAYVPAM-OH) | 0.77 nM |
| CC[C@H](C)[C@H](NC(=O)[C@H](CC(N)=O)NC(=O)[C@H](CC(N)=O)NC(=O)[C@@H](NC(=O)[C@@H](N)CO)[C@@H](C)CC)C(=O)N[C@@H](CC(=O)O)C(=O)N1CCC[C@H]1C(=O)N[C@@H](Cc1c[nH]cn1)C(=O)N[C@@H](Cc1ccccc1)C(=O)O [3102.1039] (H-SINNIDPHF-OH) | 12 nM |
